In a melting point compilation (Tetko et al.; mined from patent text by program, amines drawn as free bases though some values may be those of a salt):

| Structure (SMILES) | melting point [°C] |
| --- | --- |
| CCCS(=O)(=O)NCC1CC2C=CC1C2 (stereo not drawn) | 51 to 52 |
| COc1ccc(C2CNC(=O)C2)cc1I (stereo not drawn) | 158 |
| C=CC(=O)OCCCCC[C@H]1CC[C@H](c2cccc(F)c2F)CC1 | 29.6 to 30.7 |
| O=C(O)CCc1c(C=C2C(=O)Nc3ccccc32)[nH]c2c1CCCC2 | 263 to 265 |
| COCCCCCNC(=O)C(c1ccccc1)c1ccccc1 | 74.2 to 75 |
| CC12C=CCC=C1CCC1C2C(O)CC2(C)C(CCO)=CCC12 (stereo not drawn) | 213 to 215 |
| CC(C)c1cccc(C(C)C)c1NC(=O)CC(=O)C1(c2ccccc2)CCCC1 | 145 to 147 |
| C(=Cc1ccc2c(c1)Sc1ccccc1N2c1ccccc1)c1ccc(-c2ccc(C=Cc3ccc4c(c3)Sc3ccccc3N4c3ccccc3)cc2)cc1 | 278 to 290 |
| S=S1N=C2SCSC2=N1 | 99 |
| CC(C)CCC(O)C(CC1CCCCC1)NC(=O)C(Cc1c[nH]cn1)N(C)C(=O)C(Cc1ccccc1)OC(=O)N(C)CCN(C)C(=O)C(C)C (stereo not drawn) | 68 to 72 |
| Cc1ccc(S(=O)(=O)NC(=O)NC2N=C(c3ccccc3)c3ccccc3N(C)C2=O)cc1 (stereo not drawn) | 244 to 246 |
| CC(C)(C)CC(=O)NCc1cccc2c1C(=O)N(C1CCC(=O)NC1=O)C2=O (stereo not drawn) | 145 to 147 |
| Cn1ncc(C23CCCN(CC2)C3)n1 (stereo not drawn) | 65 to 70 |
| O=C(c1cc([N+](=O)[O-])ccc1Nc1ccncc1)N1CCCCC1 | 194 to 196 |
| CN(C)C(=O)C1Cc2c(c(Cl)cc(F)c2N2C(=O)C3=C(CCCC3)C2=O)O1 (stereo not drawn) | 190 to 193 |
| O=C1C=C(Br)C(=CBr)O1 | 97 to 98 |
| C1=C(/C=C/c2ccccc2)CCN(Cc2c[nH]c3ccccc23)C1 | 191 to 193 |

The next lines start with the values.

| melting point [°C] | Structure (SMILES) |
| --- | --- |
| 191 to 193 | CC(C)N1CCC(NC(=O)Nc2ccccc2CCc2cc(C(C)(C)C)c(O)c(C(C)(C)C)c2)CC1 |
| 97.5 | CCCCCC1OCc2cc(C(=O)Oc3ccc(CCC)cc3)ccc2O1 (stereo not drawn) |
| 161 to 162 | COc1cc(Nc2nccc(-c3ccc(N)s3)n2)cc(OC)c1OC |
| > 260 | O=C1c2ccccc2C(=O)c2sc(-c3cccs3)nc21 |
| 198 to 200 | COC(=O)c1ccc(-c2ccccc2)cc1S(=O)(=O)NC(=O)Nc1nc(C)nc(OC)n1 |
| 202 to 207 | O=C(Cn1c(-c2ccccc2)ncc(NC(=O)OCc2ccc(C(=O)O)cc2)c1=O)NC(Cc1ccccc1)C(=O)C(F)(F)F (stereo not drawn) |
| 179 to 180 | CS(=O)c1ccc(CSc2nnc(-c3ccc4ncsc4c3)o2)cc1C(F)(F)F (stereo not drawn) |
| 207 to 209 | CS(=O)(=O)c1ccc(CCN2CC=C(c3c[nH]c(-c4ccc(F)cc4)c3-c3ccncc3)CC2)cc1 |
| 255 to 260 | O=C(O)c1cncc(-c2cnc3c(c2)N(Cc2cc(F)ccc2F)CCN3)c1 |
| 200 to 202 | Clc1cccc(Cl)c1C=Nc1c2c(nc3ccccc13)CCCC2 |
| 171 to 173 | COC(=O)CCCC(=O)Nc1ccc(-c2ccc(C#N)cc2)cc1 |
| 231 to 232 | COc1cc(C(F)(F)F)cc(OC)c1-c1ccc(C[C@H](NC(=O)c2c(Cl)cccc2Cl)C(=O)O)cc1 |
| 111 to 112 | COc1c(C)c(N)c2c(c1C)C(c1ccc(C(C)C)cc1)C(C)(C)O2 (stereo not drawn) |
| 110 to 112 | CC1NC(c2ccc(Cl)cc2)=NO1 (stereo not drawn) |
| 147 to 148 | Cc1csc(-c2ccc3c(c2)C=C(C(=O)Nc2ccc(CN(C)C4CCOCC4)cc2)CCO3)c1 |
| 130 to 131 | C(=C\c1nc2ccccc2n1-c1ccccn1)/c1cccs1 |
| 127 to 129 | CN1C(=O)N(c2ccc(Cl)cc2)S(=O)(=O)c2ccc(OCC3CCCCC3)cc21 |
| 180 to 182 | Nc1ccc(SCc2csc(NC=O)n2)cc1 |
| 116 to 117 | COCOc1cc(C=CC(=O)c2c(OC)cc(OC)c(CC=C(C)C)c2O)ccc1OC |
| 155 to 157 | CC(C)(C)OC(=O)c1cc(-c2ccccc2)c(=O)n2ccc3ccsc3c12 |
| 131 to 133 | O=C(OCc1ccc(-c2ccc(N3C[C@H](Cn4ccnn4)OC3=O)cc2F)cn1)N1CCOCC1 |
